In BigSolDB 2.1:

c1cc2c3c(cccc3c1)CC2
solubility (mole fraction)
Settings | in acetone | in benzene | in isobutanol | in m-xylene | in n-propanol
283 K | 0.0417 | 0.118 | 0.00926 | 0.109 | 0.00879
288 K | 0.0491 | 0.131 | – | 0.129 | –
288.1 K | – | – | 0.0128 | – | 0.012
293 K | 0.0587 | – | – | 0.143 | –
293.2 K | – | 0.142 | 0.0162 | – | 0.0144
298 K | 0.0692 | 0.162 | 0.0205 | 0.163 | 0.0175
303 K | 0.0788 | 0.187 | – | – | –
303.1 K | – | – | – | 0.188 | –
303.3 K | – | – | 0.0253 | – | 0.0208
308 K | – | – | 0.0297 | – | 0.0246
308.1 K | 0.0954 | – | – | – | –
308.2 K | – | – | – | 0.216 | –
308.3 K | – | 0.215 | – | – | –
313 K | 0.113 | 0.244 | – | 0.245 | –
313.1 K | – | – | 0.0353 | – | 0.0295
318 K | 0.136 | 0.277 | 0.0435 | 0.281 | 0.0364
323 K | 0.173 | 0.312 | 0.0565 | 0.321 | 0.0464
